Common to all, as to type: cell-based
Assay [1] concerns the target T1, hERG channels (Homo sapiens, UniProt Q12809).
T1 construct: cryopreserved at Evotec (Germany) ATCC PTA-6812; host or cells: CHO (Chinese hamster) crelox hERG cell line
Put plainly: hERG screening assay (automated patch clamp). To be noted: CHO crelox hERG cell line, whole-cell patch clamp SynchroPatch 384, 35-37° C. The source says: hERG Screening Assay The CHO crelox hERG cell line (ATCC reference Nr. PTA-6812, female Chinese hamster cells) was generated and validated at Roche. Ready-to-use frozen instant CHO-hERG cells were cryopreserved at Evotec (Germany) and used directly in the experiments. The extracellular solution contains (in mM): NaCl 150; KCl 4; CaCl2 1; MgCl2 1; HEPES 10; pH 7.2-7.4 with NaOH, osmolarity 290-330 mOsm. The internal solution contains (in mM): KCl, 10; KF, 100; NaCl, 10; HEPES, 10; EGTA, 20; pH=7.0-7.4 with KOH, osmolarity 260-300 mOsm. The effects of a compound on hERG K+-currents parameters will be evaluated at 2 concentrations in at least 4 cells. The hERG test is performed using automated patch clamp system SynchroPatch® 384 (Nanion Technologies GmbH, Germany). K+ currents are measured with the patch-voltage-clamp technique in the whole-cell configuration at 35-37° C. Cells were held at a resting voltage of −80 mV and they were stimulated by a voltage pattern shown in FIG. 1 to activate hERG channels and conduct outward IKhERG current, at a stimulation frequency of 0.1 Hz (6 bpm) The amplitudes of IKhERG were recorded in each concentration of drug and they were compared to the vehicle control values (taken as 100%) to define fractional blocks. The concentration-response data were fitted with the following relationship: where C is the concentration, • IC50 is the concentration producing 50% block • h is the Hill coefficient. Concentration-response curves were fitted by non-linear regression analysis using EworkBook suite (ID Business Solutions Ltd, UK). Data fit was done with the 4 Parameter Logistic Model (fit=(A+(B/(1+((x/C)^D)))), where A=0 and B=100).
For orientation: The hERG channel carries a current that helps repolarise heart muscle cells.

Assay [2] concerns the target T2, NLRP3 (Homo sapiens, UniProt Q96P20). Nature of the assay: THP-1 cells pyroptosis assay. Set-up: Seed THP-1 cells (25,000 cells/well) containing 1.0 μg/ml LPS; host or cells: THP-1 cells, LPS-primed, nigericin-stimulated. Conditions: 1.0 μg/ml LPS, nigericin 5 μM, resazurin readout. As for the experimental part: The cells were routinely passaged and grown to confluency (˜10^6 cells/ml). On the day of the experiment, THP-1 cells were harvested and resuspended into RPMI medium (without FBS). […] To this diluted cell solution was added LPS (Sigma #L4524) to give a 1 μg/ml Final Assay Concentration (FAC). 40 μl of the final preparation was aliquoted into each well of a 96-well plate. The plate thus prepared was used for compound screening.
The following method step-by-step assay was followed for compound screening. • 1. […] Incubate for 3 hrs at 37° C., 5% CO2 • 4. Add 5 μl nigericin (Sigma #N7143) (FAC 5 μM) to all wells • 5. Incubate for 1 hr at 37° C., 5% CO2 • 6. At the end of the incubation period, spin plates at 300×g for 3 mins and remove supernatant • 7. Then add 50 μl of resazurin (Sigma #R7017) (FAC 100 μM resazurin in RPMI medium without FBS) and incubate plates for a further 1-2 hrs at 37° C. and 5% CO2 • 8. […] IC50 data is fitted to a non-linear regression equation (log inhibitor vs response-variable slope 4-parameters)

In assay [3] the target is T2, NLRP3. Put plainly: Human whole blood IL-1β release assay. To be noted: 1 μg/ml LPS, nigericin 10 μM, IL-1β by AlphaLisa. Set-up: Human whole blood in Li-heparin tubes was obtained from healthy donors; from tissue; host or cells: human whole blood from healthy donors, LPS-primed, nigericin-stimulated. As for the experimental part:
For systemic delivery, the ability to inhibit NLRP3 when the compounds are present within the bloodstream is of great importance. For this reason, the NLRP3 inhibitory activity of a number of compounds in human whole blood was investigated in accordance with the following protocol.
Human whole blood in Li-heparin tubes was obtained from healthy donors from a volunteer donor panel. • 1. […] Incubate for 3 hrs at 37° C., 5% CO2 • 4. Add 10 μl nigericin (Sigma #N7143) (10 μM FAC) to all wells • 5. Incubate for 1 hr at 37° C., 5% CO2 • 6. At the end of the incubation period, spin plates at 300×g for 5 mins to pellet cells and remove 20 μl of supernatant and add to 96-well v-bottom plates for IL-1β analysis (note: these plates containing the supernatants can be stored at −80° C. to be analysed at a later date) • 7. IL-1β was measured according to the manufacturer protocol (Perkin Elmer-AlphaLisa IL-1 Kit AL220F-5000) • 8. IC50 data is fitted to a non-linear regression equation (log inhibitor vs response-variable slope 4-parameters)

The IC50 is the midpoint of a concentration-inhibition curve.

T1 sequence (Q12809 whole entry): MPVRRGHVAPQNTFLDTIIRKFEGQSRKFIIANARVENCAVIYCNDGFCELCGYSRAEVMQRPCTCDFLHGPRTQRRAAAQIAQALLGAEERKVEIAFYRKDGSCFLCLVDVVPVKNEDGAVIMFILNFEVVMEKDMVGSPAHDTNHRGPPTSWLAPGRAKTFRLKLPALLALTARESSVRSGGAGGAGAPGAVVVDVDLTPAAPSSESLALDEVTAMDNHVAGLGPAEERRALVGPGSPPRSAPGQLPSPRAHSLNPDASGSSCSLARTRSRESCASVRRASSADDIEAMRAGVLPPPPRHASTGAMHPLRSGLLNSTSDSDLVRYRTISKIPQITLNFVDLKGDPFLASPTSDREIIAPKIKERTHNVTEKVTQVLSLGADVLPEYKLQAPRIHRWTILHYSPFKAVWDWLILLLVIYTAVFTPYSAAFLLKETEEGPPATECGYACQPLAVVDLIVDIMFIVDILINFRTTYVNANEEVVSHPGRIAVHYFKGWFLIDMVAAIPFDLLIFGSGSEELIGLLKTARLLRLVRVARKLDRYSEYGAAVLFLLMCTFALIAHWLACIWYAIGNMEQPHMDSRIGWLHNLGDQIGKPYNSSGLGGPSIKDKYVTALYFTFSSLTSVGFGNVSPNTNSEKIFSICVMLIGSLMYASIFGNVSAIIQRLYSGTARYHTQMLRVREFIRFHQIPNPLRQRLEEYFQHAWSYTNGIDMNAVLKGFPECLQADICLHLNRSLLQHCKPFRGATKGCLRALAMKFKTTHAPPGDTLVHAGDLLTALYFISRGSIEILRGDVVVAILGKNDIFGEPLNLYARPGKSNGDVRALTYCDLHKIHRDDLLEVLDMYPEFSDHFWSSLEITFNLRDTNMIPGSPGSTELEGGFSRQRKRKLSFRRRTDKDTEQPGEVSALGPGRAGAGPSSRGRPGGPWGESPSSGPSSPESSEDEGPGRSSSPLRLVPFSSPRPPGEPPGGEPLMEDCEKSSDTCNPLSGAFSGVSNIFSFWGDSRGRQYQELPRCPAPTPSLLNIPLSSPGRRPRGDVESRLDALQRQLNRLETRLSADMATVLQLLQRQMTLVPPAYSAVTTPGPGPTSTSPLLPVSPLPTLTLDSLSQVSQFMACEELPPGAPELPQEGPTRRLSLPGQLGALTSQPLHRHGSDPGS
T2 sequence (Q96P20 whole entry): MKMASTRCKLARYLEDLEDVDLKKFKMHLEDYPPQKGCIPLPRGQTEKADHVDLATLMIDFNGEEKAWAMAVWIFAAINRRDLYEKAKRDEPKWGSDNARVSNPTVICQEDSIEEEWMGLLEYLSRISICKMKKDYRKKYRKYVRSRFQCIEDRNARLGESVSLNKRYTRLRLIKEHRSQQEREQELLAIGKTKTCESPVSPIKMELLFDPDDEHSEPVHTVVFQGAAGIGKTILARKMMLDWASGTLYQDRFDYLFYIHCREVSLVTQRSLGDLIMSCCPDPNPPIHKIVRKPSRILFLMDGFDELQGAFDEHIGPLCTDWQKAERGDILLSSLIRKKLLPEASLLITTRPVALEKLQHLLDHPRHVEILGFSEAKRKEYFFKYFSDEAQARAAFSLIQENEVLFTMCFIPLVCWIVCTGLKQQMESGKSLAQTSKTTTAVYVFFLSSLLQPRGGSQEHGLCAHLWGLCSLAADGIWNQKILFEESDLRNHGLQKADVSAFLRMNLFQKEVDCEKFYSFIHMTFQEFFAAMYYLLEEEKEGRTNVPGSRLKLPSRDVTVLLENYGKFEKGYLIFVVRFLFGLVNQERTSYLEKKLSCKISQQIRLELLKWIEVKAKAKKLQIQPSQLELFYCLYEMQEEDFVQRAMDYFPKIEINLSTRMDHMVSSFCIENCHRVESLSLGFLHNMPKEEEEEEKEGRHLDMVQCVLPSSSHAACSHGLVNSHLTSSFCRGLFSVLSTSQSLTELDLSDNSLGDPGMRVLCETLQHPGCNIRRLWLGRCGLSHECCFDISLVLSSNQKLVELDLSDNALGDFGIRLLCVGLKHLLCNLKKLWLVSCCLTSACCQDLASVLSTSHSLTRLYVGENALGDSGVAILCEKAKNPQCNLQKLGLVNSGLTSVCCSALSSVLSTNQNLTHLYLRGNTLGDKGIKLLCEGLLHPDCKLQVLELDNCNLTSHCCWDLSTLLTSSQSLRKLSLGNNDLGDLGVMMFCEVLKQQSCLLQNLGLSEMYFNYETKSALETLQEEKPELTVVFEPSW

Take `CCN1CCCC(Nc2nnc(-c3ccc(C(F)(F)F)cc3O)n(C)c2=O)C1` (stereo not drawn) [Example 1, 6-((1-ethylpiperidin-3-yl)amino)-3-(2-hydroxy-4-(trifluoromethyl)phenyl)-4-methyl-1,2,4-triazin-5(4H)-one]: the values for the IC50 in assay [1], in assay [2] and in assay [3] were above 20000 nM, 44 nM and 35 nM, respectively. For `CCN1CCC[C@@H](Nc2nnc(-c3ccc4c(c3O)CCO4)n(C)c2=O)C1` [Example 2, 6-[[(3R)-1-Ethyl-3-piperidyl]amino]-3-(4-hydroxy-2,3-dihydrobenzofuran-5-yl)-4-methyl-1,2,4-triazin-5-one], the concentration for half-maximal inhibition (IC50) in assay [1] is above 20000 nM.

With `CN1C2CCC(Nc3nnc(-c4ccc(C(F)(F)F)cc4O)n(C)c3=O)C1CC2` (stereo not drawn) [Example 4, 3-[2-Hydroxy-4-(trifluoromethyl)phenyl]-4-methyl-6-[(8-methyl-8-azabicyclo[3.2.1]octan-2-yl)amino]-1,2,4-triazin-5-one;2,2,2-trifluoroacetic Acid], the 50% inhibitory concentration (IC50) was determined as 96 nM in assay [2] and 120 nM in assay [3]. For `Cn1c(-c2ccc(C(F)(F)F)cc2O)nnc(N[C@@H]2CCCN(CC3CC3)C2)c1=O` [Example 5, (R)-6-((1-(Cyclopropylmethyl)piperidin-3-yl)amino)-3-(2-hydroxy-4-(trifluoromethyl)phenyl)-4-methyl-1,2,4-triazin-5(4H)-one;2,2,2-trifluoroacetic Acid], in that order: 88 nM and 92 nM.

For the molecule `CN1CCC[C@@H](Nc2nnc(-c3ccc(C(F)(F)F)cc3O)n(C)c2=O)C1` [Example 6, (R)-3-(2-Hydroxy-4-(trifluoromethyl)phenyl)-4-methyl-6-((1-methylpiperidin-3-yl)amino)-1,2,4-triazin-5(4H)-one;2,2,2-trifluoroacetic Acid], the IC50 worked out at 24 nM in assay [2] and 15 nM in assay [3].

`Cn1c(-c2ccc(C(F)(F)F)cc2O)nnc(NC2CCCN3CCCC23)c1=O` (stereo not drawn) [Example 7, 6-(1,2,3,5,6,7,8,8a-Octahydroindolizin-8-ylamino)-3-[2-hydroxy-4-(trifluoromethyl)phenyl]-4-methyl-1,2,4-triazin-5-one;2,2,2-trifluoroacetic Acid]: the half-maximal inhibitory concentration (IC50) in assay [2] stood at 51 nM; in assay [3], 86 nM. For the molecule `CCCN1CCC[C@@H](Nc2nnc(-c3ccc(C(F)(F)F)cc3O)n(C)c2=O)C1` [Example 8, 3-[2-Hydroxy-4-(trifluoromethyl)phenyl]-4-methyl-6-[[(3R)-1-propyl-3-piperidyl]amino]-1,2,4-triazin-5-one;2,2,2-trifluoroacetic Acid], the half-maximal inhibitory concentration (IC50) in assay [2] was found to be 53 nM; in assay [3], 32 nM. For `Cn1c(-c2ccc(C(F)(F)F)cc2O)nnc(N[C@H]2C[C@@](C)(O)C2)c1=O` [Example 11, 6-(((1S,3S)-3-Hydroxy-3-methylcyclobutyl)amino)-3-(2-hydroxy-4-(trifluoromethyl)phenyl)-4-methyl-1,2,4-triazin-5(4H)-one] the same measures were 391 nM and 190 nM. As to `Cn1c(-c2ccc(C(F)(F)F)cc2O)nnc(NCc2cccc(O)c2)c1=O` [Example 18, 6-[(3-Hydroxyphenyl)methylamino]-3-[2-hydroxy-4-(trifluoromethyl)phenyl]-4-methyl-1,2,4-triazin-5-one;2,2,2-trifluoroacetic Acid], the IC50 in assay [2] was determined as 1.2 nM; in assay [3], 8.1 nM. For `CCN1CCC[C@@H](Nc2nnc(-c3ccc(C(F)(F)F)cc3O)n(CC)c2=O)C1` [Example 22, 4-Ethyl-6-[[(3R)-1-ethyl-3-piperidyl]amino]-3-[2-hydroxy-4-(trifluoromethyl)phenyl]-1,2,4-triazin-5-one] the same measures were 94 nM and 48 nM. For `CCN1CCC[C@@H](Nc2nnc(-c3ccc(OC(F)F)cc3O)n(C)c2=O)C1` [Example 23, 3-[4-(Difluoromethoxy)-2-hydroxy-phenyl]-6-[[(3R)-1-ethyl-3-piperidyl]amino]-4-methyl-1,2,4-triazin-5-one; Formic Acid] the same measures were 8.1 nM and 6.5 nM. For `CCN1CCC[C@@H](Nc2nnc(-c3ccc(C(C)(F)F)cc3O)n(C)c2=O)C1` [Example 24, 3-[4-(1,1-Difluoroethyl)-2-hydroxy-phenyl]-6-[[(3R)-1-ethyl-3-piperidyl]amino]-4-methyl-1,2,4-triazin-5-one], in that order: 106 nM and 108 nM. For the molecule `CCN1CCC[C@@H](Nc2nnc(-c3ccc(C(C)=O)cc3O)n(C)c2=O)C1` [Example 25, 3-(4-Acetyl-2-hydroxy-phenyl)-6-[[(3R)-1-ethyl-3-piperidyl]amino]-4-methyl-1,2,4-triazin-5-one], the half-maximal inhibitory concentration (IC50) in assay [2] is 9.3 nM; in assay [3], 15 nM. In the case of `CCN1CCC[C@@H](Nc2nnc(-c3ccc(C#N)cc3O)n(C)c2=O)C1` [Example 32, 4-[6-[[(3R)-1-Ethyl-3-piperidyl]amino]-4-methyl-5-oxo-1,2,4-triazin-3-yl]-3-hydroxy-benzonitrile; formic acid], in assay [2], half-maximal inhibition (IC50) required 809 nM. `CCN1CCC[C@@H](Nc2nnc(-c3ccc(Cl)cc3O)n(C)c2=O)C1` [Example 33, 3-(4-Chloro-2-hydroxy-phenyl)-6-[[(3R)-1-ethyl-3-piperidyl]amino]-4-methyl-1,2,4-triazin-5-one] came in with a concentration for half-maximal inhibition (IC50) in assay [1] above 20000 nM. Consider `CN1CCC[C@@H](Nc2nnc(-c3ccc(OC(F)(F)F)cc3O)n(C)c2=O)C1` [Example 34, 3-[2-Hydroxy-4-(trifluoromethoxy)phenyl]-4-methyl-6-[[(3R)-1-methyl-3-piperidyl]amino]-1,2,4-triazin-5-one], for which the IC50 was 13.1 nM in assay [2] and 35.2 nM in assay [3].

For the molecule `CCN1CCC[C@@H](Nc2nnc(-c3ccc(C(F)(F)F)cc3O)[nH]c2=O)C1` [Example 35, 6-[[(3R)-1-Ethyl-3-piperidyl]amino]-3-[2-hydroxy-4-(trifluoromethyl)phenyl]-4H-1,2,4-triazin-5-one;2,2,2-trifluoroacetic Acid], in assay [2], the IC50 was 459 nM. Take `CN1C[C@@H](F)C[C@@H](Nc2nnc(-c3ccc(C(F)(F)F)cc3O)[nH]c2=O)C1` [Example 36, 6-[[(3R,5S)-1-Methyl-5-fluoro-3-piperidyl]amino]-3-[2-hydroxy-4-(trifluoromethyl)phenyl]-4H-1,2,4-triazin-5-one;2,2,2-trifluoroacetic Acid]: the IC50 in assay [2] was above 1000 nM.

In turn, `CCN1CCCC(Nc2cc(C)c(-c3ccc(C(F)(F)F)cc3O)nn2)C1` (stereo not drawn) [RE-A, 2-[6-[(1-ethyl-3-piperidyl)amino]-4-methyl-pyridazin-3-yl]-5-(trifluoromethyl)phenol, reference compound] came in with an IC50 in assay [1] of 1200 nM.

Values taken from US20240208928A1, “NOVEL COMPOUNDS” (Hoffmann-La Roche Inc., priority 2021, published 2024).
